{"source": "patent US10314775B2", "about": "“Methods of increasing hair growth and improving hair appearance” (MyMD Pharmaceuticals, Inc., priority 2016, dated 2019)", "key": {"male-pattern baldness": {"tested_on": "male-pattern baldness", "assay": "Oral treatment of a person with male-pattern baldness (scalp photographs)", "type": "in vivo, human", "settings": "oral 60 mg/day, photographs after three weeks and 90 days of treatment (FIG. 3-5)", "method": "A person and approximately 75 kg in weight was experiencing male-pattern baldness. The individual was orally administered isomyosmine at a dosage of 60 mg/day over the course of three weeks. FIG. 3 is a photograph of the scalp of the individual before treatment. FIG. 4 is a photograph of the scalp of the individual after three weeks of treatment (and a haircut). FIG. 5 is a photograph of the scalp of the individual after 90 days of treatment."}, "MAO-B": {"molecular_target": "T1, MAO-B (Homo sapiens, UniProt P27338)", "T1 construct": "purchased", "T1 sequence (P27338 1-520)": "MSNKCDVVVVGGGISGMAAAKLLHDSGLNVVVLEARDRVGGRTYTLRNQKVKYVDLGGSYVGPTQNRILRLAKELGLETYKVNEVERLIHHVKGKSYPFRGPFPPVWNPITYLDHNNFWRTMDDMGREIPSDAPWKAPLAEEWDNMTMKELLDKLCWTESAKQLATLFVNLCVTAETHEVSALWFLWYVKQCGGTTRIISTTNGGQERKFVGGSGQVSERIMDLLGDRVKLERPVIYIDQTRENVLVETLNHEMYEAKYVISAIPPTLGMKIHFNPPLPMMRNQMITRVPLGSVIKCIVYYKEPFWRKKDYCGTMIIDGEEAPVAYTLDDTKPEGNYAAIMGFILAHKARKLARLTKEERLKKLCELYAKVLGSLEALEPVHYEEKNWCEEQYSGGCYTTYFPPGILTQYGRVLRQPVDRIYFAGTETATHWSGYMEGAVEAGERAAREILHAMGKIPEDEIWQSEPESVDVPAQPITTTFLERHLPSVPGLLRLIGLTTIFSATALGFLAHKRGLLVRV", "assay": "MAO-Glo luminescent assay, MAO-B inhibition", "type": "biochemical", "settings": "FIG. 2; compared with myosmine, anatabine, anabasine, nornicotine", "source_text": "(§1) This example describes experiments for determining monoamine oxidase (MAO) inhibition for isomyosmine and other alkaloids. MAOs are enzymes located on the outer membrane of mitochondria and are involved in the catabolism of monoamine neurotransmitters. There are two well-characterized isoenzymes: MAO-A, which predominantly catabolizes serotonin and norepinephrine, and MAO-B, which preferentially catabolizes benzylamine and phenylethylamine. Dopamine and tyramine are metabolized by both isoforms.\nTo detect the activity of MAO, a luminescent method (MAO-Glo Assay kit, from Promega, Cat # V1401) was used. In this method, a MAO substrate (a derivative of beetle luciferin provided in the kit) is mixed with the compound to be tested (in this case, myosmine and control compounds). Then, the MAO enzymes (either A or B, purchased separately) are added to the mixture and incubated with the reaction for 1 hour at room temperature. The MAO enzymes, if not inhibited by the test compound, will convert the substrate into methyl ester luciferin. Finally, a luciferin detection reagent (provided by the kit) is added (20 minutes at room temperature) to stop the MAO reaction and convert methyl ester luciferin into D-luciferin. […] The luminescent signal is measured and recorded using a luminometer. […]"}, "MAO-A": {"molecular_target": "T2, MAO-A (Homo sapiens, UniProt P21397)", "T2 construct": "purchased", "T2 sequence (P21397 1-527)": "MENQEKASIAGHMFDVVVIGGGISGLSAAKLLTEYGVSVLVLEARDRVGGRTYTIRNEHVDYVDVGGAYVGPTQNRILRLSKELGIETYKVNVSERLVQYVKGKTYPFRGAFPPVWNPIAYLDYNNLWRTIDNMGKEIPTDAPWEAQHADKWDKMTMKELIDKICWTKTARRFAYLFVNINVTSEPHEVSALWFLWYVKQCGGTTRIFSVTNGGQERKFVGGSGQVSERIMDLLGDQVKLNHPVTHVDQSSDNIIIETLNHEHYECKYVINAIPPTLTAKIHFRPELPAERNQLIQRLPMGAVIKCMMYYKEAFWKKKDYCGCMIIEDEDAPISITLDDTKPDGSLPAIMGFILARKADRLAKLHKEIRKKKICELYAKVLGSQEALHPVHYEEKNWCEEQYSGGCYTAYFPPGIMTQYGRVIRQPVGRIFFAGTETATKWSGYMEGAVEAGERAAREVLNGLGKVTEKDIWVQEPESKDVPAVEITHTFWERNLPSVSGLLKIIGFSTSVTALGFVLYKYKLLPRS", "assay": "MAO-Glo luminescent assay, MAO-A inhibition", "type": "biochemical", "settings": "FIG. 1", "source_text": "as §1\nTo detect the activity of MAO, a luminescent method (MAO-Glo Assay kit, from Promega, Cat # V1401) was used. In this method, a MAO substrate (a derivative of beetle luciferin provided in the kit) is mixed with the compound to be tested (in this case, myosmine and control compounds). Then, the MAO enzymes (either A or B, purchased separately) are added to the mixture and incubated with the reaction for 1 hour at room temperature. The MAO enzymes, if not inhibited by the test compound, will convert the substrate into methyl ester luciferin. Finally, a luciferin detection reagent (provided by the kit) is added (20 minutes at room temperature) to stop the MAO reaction and convert methyl ester luciferin into D-luciferin. […] The luminescent signal is measured and recorded using a luminometer.\nAnatabine was obtained from Emerson Resources, Norristown, Pa."}}}
{"smiles": "C1=NC(c2cccnc2)CC1", "note": "(stereo not shown) [isomyosmine, 3-(3,4-dihydro-2H-pyrrol-2-yl)-pyridine]", "values": [{"measurement": "hair growth on the scalp", "setting": "male-pattern baldness", "value": "significant new growth of healthy, dark-colored hair on the scalp"}, {"measurement": "inhibiting the activity of MAO-B, comparison of curves", "setting": "MAO-B", "value": "the most potent among the five alkaloids tested"}, {"measurement": "inhibition at 2000 µM", "setting": "MAO-A; 2 mM concentration (2,000 micromolar), read-out: inhibition of the enzymatic activity of MAO-A", "value": "~50", "unit": "%"}, {"measurement": "inhibiting the enzymatic activity of MAO-A, comparison of curves", "setting": "MAO-A; compared with myosmine, anatabine, anabasine, nornicotine, clorgyline positive control", "value": "the most potent of the five"}]}
